The results in this text go back to patent US20240165244A1 (Prelude Therapeutics Incorporated, priority 2022, published 2024).

One assay concerns the target T1, SMARCA4 (Homo sapiens, UniProt P51532).
T1 construct: SMARCA4-HiBiT knock-in Hela monoclonal cell (CS3023226); host or cells: HeLa monoclonal cells with heterozygous HiBiT knock-in at the endogenous SMARCA4 locus
The assay can be described thus: SMARCA4 HiBiT degradation assay in HeLa cells. In kind it is cell-based. The settings on record: 18 hours, highest concentration 10 μM. How it is done: (§1) SMARCA2 HiBiT and SMARCA4 HiBiT Degradation Assay
HiBiT peptide knock-in of SMARCA2 in LgBiT expressing HEK293T cells was performed by CRISPR-mediated tagging system as described Promega. […] SMARCA2-HiBiT knock-in Hela monoclonal cell (CS302366) and SMARCA4-HiBiT knock-in Hela monoclonal cell (CS3023226) were purchased from Promega.
(§2) SMARCA2 HiBiT and SMARCA4 HiBiT Degradation Assay in HeLa Cells
Remove appropriate volume of resuspended cells from culture flask to accommodate 2500 cells/well @ 20 μL/well. […] Spin down at 1000 rpm for 5 min using tabletop centrifuge (SPINCHRON 15, Beckman).
Dispense test compounds onto plates using digital liquid dispenser (D300E, Tecan). Incubate plates in humidified tissue culture incubator @37° C. for 18 hours. […] Raw data files and compound information reports are swept into centralized data lake and deconvoluted using automated scripts designed by TetraScience, Inc. Data analysis, curve-fitting and reporting done in Dotmatics Informatics Suite using Screening Ultra module.
On the technique in general: With HiBiT, luminescence reflects the tagged protein that the partner subunit can reach.

The target in another assay is T2, SMARCA2 (Homo sapiens, UniProt P51531).
T2 construct: SMARCA2-HiBiT knock-in Hela monoclonal cell (CS302366); host or cells: HeLa monoclonal cells with heterozygous HiBiT knock-in at the endogenous SMARCA2 locus
The assay can be described thus: SMARCA2 HiBiT degradation assay in HeLa cells. As to conditions: 18 hours, highest concentration 10 μM. The class given is cell-based. How it is done: as §1
HiBiT peptide knock-in of SMARCA2 in LgBiT expressing HEK293T cells was performed by CRISPR-mediated tagging system as described Promega. The homozygous HiBiT knock-in on c-terminus SMARCA2 was confirmed by sanger sequence. SMARCA2-HiBiT knock-in Hela monoclonal cell (CS302366) and SMARCA4-HiBiT knock-in Hela monoclonal cell (CS3023226) were purchased from Promega. The heterozygous HiBiT-knock-in was confirmed by sanger sequence in both SMARCA2-HiBiT and SMARCA4-HiBiT monoclonal cells.
as §2
Dispense 10 ul aliquot of prepared Hela-SMARCA2-HiBiT or Hela-SMARCA4-HiBiT cells (1:1 ratio of cells:Trypan Blue (#1450013, Bio-Rad)) onto cell counting slide (#145-0011, Bio-Rad) and obtain cell density and cell viability using cell counter (TC20, Bio-Rad). Remove appropriate volume of resuspended cells from culture flask to accommodate 2500 cells/well @ 20 μL/well. Transfer Hela-HiBiT cells to 50 mL conical (#430290, Corning). Spin down at 1000 rpm for 5 min using tabletop centrifuge (SPINCHRON 15, Beckman). Discard supernatant and resuspend cell pellet in modified EMEM (#30-2003, ATCC) cell culture media containing 10% FBS (F2422-500ML, Sigma), and 1× Penicillin/Streptomycin ([…]) (30-002-CI, Corning) to a cell density of 125,000 cells/mL. Dispense 20 μLof resuspended Hela-HiBit cells per well in 384-well TC treated plate (#12-565-343, Thermo Scientific) using standard cassette (#50950372, Thermo Scientific) on Multidrop Combi (#5840310, Thermo Scientific) inside laminar flow cabinet.
Compounds were dissolved in DMSO to make 10 mM stock and 3-fold series dilutions were further conducted keeping the highest concentration 10 μM. Dispense test compounds onto plates using digital liquid dispenser (D300E, Tecan). Incubate plates in humidified tissue culture incubator @37° C. for 18 hours. Add 20 μL of prepared Nano-Glo® HiBiT Lytic detection buffer (N3050, Promega) to each well of 384-well plate using small tube cassette (#24073295, Thermo Scientific) on Multidrop Combi, incubate @ RT for 30-60 min. Read plates on microplate reader (Envision 2105, PerkinElmer) using 384 well Ultra-Sensitive luminescence mode. Raw data files and compound information reports are swept into centralized data lake and deconvoluted using automated scripts designed by TetraScience, Inc. Data analysis, curve-fitting and reporting done in Dotmatics Informatics Suite using Screening Ultra module.

T1 sequence (P51532 whole entry): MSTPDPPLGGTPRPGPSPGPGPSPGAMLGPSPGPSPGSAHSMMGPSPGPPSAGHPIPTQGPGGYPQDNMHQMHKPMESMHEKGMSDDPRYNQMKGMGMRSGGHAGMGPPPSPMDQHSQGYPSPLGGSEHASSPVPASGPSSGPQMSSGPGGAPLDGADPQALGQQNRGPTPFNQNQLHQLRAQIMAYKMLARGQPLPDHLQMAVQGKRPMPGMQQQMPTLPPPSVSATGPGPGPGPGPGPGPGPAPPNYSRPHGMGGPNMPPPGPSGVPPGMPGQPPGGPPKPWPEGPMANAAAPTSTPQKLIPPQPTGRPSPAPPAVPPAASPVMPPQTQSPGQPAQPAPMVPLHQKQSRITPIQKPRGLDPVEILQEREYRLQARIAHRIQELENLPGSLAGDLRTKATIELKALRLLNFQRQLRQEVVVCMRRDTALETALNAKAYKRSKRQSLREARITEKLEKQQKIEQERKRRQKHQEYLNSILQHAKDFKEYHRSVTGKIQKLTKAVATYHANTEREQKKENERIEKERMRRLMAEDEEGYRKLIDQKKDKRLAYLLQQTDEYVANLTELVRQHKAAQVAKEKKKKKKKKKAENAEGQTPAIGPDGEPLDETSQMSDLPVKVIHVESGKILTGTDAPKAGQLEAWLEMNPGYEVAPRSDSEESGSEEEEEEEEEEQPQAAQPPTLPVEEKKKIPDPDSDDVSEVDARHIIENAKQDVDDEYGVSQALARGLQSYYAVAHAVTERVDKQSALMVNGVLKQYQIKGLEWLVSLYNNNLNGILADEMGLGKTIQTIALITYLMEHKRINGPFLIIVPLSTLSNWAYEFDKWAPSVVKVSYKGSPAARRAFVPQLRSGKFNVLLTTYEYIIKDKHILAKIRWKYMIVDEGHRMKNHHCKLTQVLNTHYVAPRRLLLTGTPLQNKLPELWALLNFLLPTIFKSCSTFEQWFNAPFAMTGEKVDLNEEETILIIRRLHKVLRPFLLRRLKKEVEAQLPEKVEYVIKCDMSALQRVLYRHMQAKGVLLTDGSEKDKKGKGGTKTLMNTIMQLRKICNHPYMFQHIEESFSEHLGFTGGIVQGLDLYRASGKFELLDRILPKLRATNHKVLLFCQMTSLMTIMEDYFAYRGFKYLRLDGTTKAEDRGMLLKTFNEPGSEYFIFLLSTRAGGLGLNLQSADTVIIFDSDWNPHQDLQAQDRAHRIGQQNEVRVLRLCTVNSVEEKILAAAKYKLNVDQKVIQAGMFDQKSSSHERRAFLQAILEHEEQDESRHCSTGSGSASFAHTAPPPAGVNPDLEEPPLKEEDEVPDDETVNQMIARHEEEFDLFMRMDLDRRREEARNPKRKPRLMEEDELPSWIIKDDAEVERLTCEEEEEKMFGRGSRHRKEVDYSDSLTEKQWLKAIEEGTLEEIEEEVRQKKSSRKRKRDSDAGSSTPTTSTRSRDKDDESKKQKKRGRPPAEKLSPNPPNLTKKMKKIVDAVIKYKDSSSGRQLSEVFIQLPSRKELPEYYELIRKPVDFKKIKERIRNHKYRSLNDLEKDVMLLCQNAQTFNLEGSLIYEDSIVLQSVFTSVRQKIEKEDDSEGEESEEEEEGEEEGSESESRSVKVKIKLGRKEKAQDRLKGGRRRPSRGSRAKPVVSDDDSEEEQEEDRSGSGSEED
T2 sequence (P51531 whole entry): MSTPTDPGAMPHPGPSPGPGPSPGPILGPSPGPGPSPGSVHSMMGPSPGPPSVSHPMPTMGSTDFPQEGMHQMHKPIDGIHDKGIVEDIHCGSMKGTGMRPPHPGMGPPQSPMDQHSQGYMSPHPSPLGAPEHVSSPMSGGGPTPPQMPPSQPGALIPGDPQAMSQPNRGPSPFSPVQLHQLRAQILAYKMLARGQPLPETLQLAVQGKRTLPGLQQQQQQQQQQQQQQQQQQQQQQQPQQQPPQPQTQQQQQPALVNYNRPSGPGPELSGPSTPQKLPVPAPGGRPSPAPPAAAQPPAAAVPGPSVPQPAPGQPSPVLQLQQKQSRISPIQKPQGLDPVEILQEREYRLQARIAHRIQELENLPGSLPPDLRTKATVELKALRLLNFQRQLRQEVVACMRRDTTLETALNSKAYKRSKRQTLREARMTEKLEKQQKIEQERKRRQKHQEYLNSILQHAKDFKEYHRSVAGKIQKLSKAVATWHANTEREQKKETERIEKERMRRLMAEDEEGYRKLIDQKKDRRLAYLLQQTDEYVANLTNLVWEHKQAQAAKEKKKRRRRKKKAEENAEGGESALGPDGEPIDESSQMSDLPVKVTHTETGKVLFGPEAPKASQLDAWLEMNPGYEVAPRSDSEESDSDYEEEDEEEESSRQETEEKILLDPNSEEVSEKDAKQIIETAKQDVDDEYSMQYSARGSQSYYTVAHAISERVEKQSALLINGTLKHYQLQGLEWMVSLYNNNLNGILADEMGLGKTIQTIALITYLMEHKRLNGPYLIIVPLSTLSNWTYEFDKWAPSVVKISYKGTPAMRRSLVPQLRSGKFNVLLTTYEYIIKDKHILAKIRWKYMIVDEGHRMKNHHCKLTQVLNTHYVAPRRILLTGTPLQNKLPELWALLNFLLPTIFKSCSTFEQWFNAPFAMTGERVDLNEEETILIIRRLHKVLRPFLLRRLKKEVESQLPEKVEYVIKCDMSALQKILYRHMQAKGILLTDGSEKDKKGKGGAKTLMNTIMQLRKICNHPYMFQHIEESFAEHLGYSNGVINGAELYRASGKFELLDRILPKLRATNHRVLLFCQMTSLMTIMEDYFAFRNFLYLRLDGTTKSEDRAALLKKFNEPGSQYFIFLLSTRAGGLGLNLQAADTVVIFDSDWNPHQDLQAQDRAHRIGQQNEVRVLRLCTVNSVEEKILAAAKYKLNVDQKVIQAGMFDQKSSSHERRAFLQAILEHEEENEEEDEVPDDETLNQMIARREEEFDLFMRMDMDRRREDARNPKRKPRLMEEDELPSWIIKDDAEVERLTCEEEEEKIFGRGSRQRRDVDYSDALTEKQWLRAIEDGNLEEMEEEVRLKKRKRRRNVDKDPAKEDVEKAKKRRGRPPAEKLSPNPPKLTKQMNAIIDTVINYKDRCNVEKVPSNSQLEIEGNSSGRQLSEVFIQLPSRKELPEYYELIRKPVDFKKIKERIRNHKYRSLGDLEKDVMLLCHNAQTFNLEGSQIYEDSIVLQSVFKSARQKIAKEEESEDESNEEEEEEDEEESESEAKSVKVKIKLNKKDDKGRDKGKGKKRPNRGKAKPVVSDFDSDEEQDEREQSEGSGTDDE

Take `Cc1cccc(-c2cc3c(nn2)NC[C@H]2C[C@@H](Oc4ccc(CN5CCN(c6ccc7c(c6)C(=O)N(C6CCC(=O)NC6=O)C7)CC5)cc4)CN32)c1O` (stereo partly drawn) [Example 23, 3-(6-(4-(4-(((6aR,8R)-2-(2-hydroxy-3-methylphenyl)-5,6,6a,7,8,9-hexahydropyrrolo[1′,2′:4,5]pyrazino[2,3-c]pyridazin-8-yl)oxy)benzyl)piperazin-1-yl)-1-oxoisoindolin-2-yl)piperidine-2,6-dione]: at SMARCA4, the DC50 (in general, the concentration giving 50% degradation) was less than 100 nM and the greatest degradation seen (Dmax) (as a rule, the greatest extent of degradation seen) was in the range of 50 to 75%. On SMARCA2, this compound came in with a DC50 of less than 100 nM and a maximal degradation (Dmax) greater than 75%.

Take `O=C1CCC(N2Cc3ccc(N4CCN(Cc5ccc(O[C@@H]6C[C@@H]7CNc8nnc(-c9cc(F)cc(F)c9O)cc8N7C6)cc5OC(F)(F)F)CC4)cc3C2=O)C(=O)N1` (stereo partly drawn) [Example 24, 3-(6-(4-(4-(((6aR,8R)-2-(3,5-difluoro-2-hydroxyphenyl)-5,6,6a,7,8,9-hexahydropyrrolo[1′,2′:4,5]pyrazino[2,3-c]pyridazin-8-yl)oxy)-2-(trifluoromethoxy)benzyl)piperazin-1-yl)-1-oxoisoindolin-2-yl)piperidine-2,6-dione]: at SMARCA4, the DC50 is greater than 1000 nM and the Dmax was less than 50%. On SMARCA2, this compound had a DC50 of less than 100 nM and a Dmax of 50 to 75%.

In the case of `O=C1CC[C@H](N2Cc3ccc(N4CCN(Cc5ccc(O[C@@H]6C[C@@H]7CNc8nnc(-c9cccc(Cl)c9O)cc8N7C6)cc5)CC4)cc3C2=O)C(=O)N1` [Example 25, (S)-3-(6-(4-(4-(((6aR,8R)-2-(3-chloro-2-hydroxyphenyl)-5,6,6a,7,8,9-hexahydropyrrolo[1′,2′:4,5]pyrazino[2,3-c]pyridazin-8-yl)oxy)benzyl)piperazin-1-yl)-1-oxoisoindolin-2-yl)piperidine-2,6-dione], the DC50 on SMARCA4 and at SMARCA2 was less than 100 nM in each case. Also, the Dmax at SMARCA4 and at SMARCA2 was greater than 75% in each case.

For the compound `O=C1CCC(N2Cc3ccc(N4CCN(Cc5cnc(S[C@@H]6C[C@@H]7CNc8nnc(-c9cc(F)cc(F)c9O)cc8N7C6)nc5)CC4)cc3C2=O)C(=O)N1` (stereo partly drawn) [Example 26, 3-(6-(4-((2-(((6aR,8R)-2-(3,5-difluoro-2-hydroxyphenyl)-5,6,6a,7,8,9-hexa-hydropyrrolo[1′,2′:4,5]pyrazino[2,3-c]pyridazin-8-yl)thio)pyrimidin-5-yl)methyl)piperazin-1-yl)-1-oxoisoindolin-2-yl)piperidine-2,6-dione], at SMARCA4, the 50% degradation concentration (DC50) is less than 100 nM and the Dmax was greater than 75%. At SMARCA2, this compound yielded a half-maximal degradation concentration (DC50) of less than 100 nM and a Dmax greater than 75%.

In the case of `Cc1cc(O[C@@H]2C[C@@H]3CNc4nnc(-c5cc(F)cc(F)c5O)cc4N3C2)ncc1CN1CCN(c2ccc3c(c2)C(=O)N(C2CCC(=O)NC2=O)C3)CC1` (stereo partly drawn) [Example 27, 3-(6-(4-((6-(((6aR,8R)-2-(3,5-difluoro-2-hydroxyphenyl)-5,6,6a,7,8,9-hexahydropyrrolo[1′,2′:4,5]pyrazino[2,3-c]pyridazin-8-yl)oxy)-4-methylpyridin-3-yl)methyl)piperazin-1-yl)-1-oxoisoindolin-2-yl)piperidine-2,6-dione], the 50% degradation concentration (DC50) at SMARCA4 and on SMARCA2 was less than 100 nM each time. The Dmax on SMARCA4 was 50 to 75%; at SMARCA2, greater than 75%.

For `Cc1cc(O[C@@H]2C[C@@H]3CNc4nnc(-c5cc(F)cc(F)c5O)cc4N3C2)ncc1CN1CCN(c2ccc3c(c2)C(=O)N([C@H]2CCC(=O)NC2=O)C3)CC1` [Example 28, (S)-3-(6-(4-((6-(((6aR,8R)-2-(3,5-difluoro-2-hydroxyphenyl)-5,6,6a,7,8,9-hexahydropyrrolo[1′,2′:4,5]pyrazino[2,3-c]pyridazin-8-yl)oxy)-4-methylpyridin-3-yl)methyl)piperazin-1-yl)-1-oxoisoindolin-2-yl)piperidine-2,6-dione], on SMARCA4, the DC50 was less than 100 nM and the Dmax is 50 to 75%. Moreover, on SMARCA2, the DC50 is less than 100 nM and the Dmax is greater than 75%.
